For the assay, the system named is PCA (Passive Cutaneous Anaphylaxis) reaction. The assay can be described thus: TEST I: Inhibitory effect on PCA (Passive Cutaneous Anaphylaxis) reaction (64 fold diluted antiserum). In kind it is in vivo, male SD (Sprague-Dawley) strain rats. To be noted: for Inhibitory effect (%), Intravenous administration (10 mg/kg) / inhibition in vivo at 10 mg/kg: 5 minutes before antigen challenge, intravenous; for inhibition in vivo at 10 mg/kg: Rattus norvegicus, read-out: Inhibitory effect (%), Intravenous administration (10 mg/kg); for Inhibitory effect (%), Oral administration (100 mg/kg): 60 minutes before antigen challenge. As to the method:
A solution of egg albumin (2 mg) in B. pertussis-diphtheria-tetanus mixed vaccine (1 ml) was mixed with Freund incomplete adjuvant (1 ml) to give an emulsion. The emulsion was given subcutaneously in a single dose of 1 ml divided equally (0.25 ml) to the four foot pads of male SD (Sprague-Dawley) strain rats aged 8 weeks, each weighing about 300 g.
10 days after the immunization, blood samples were collected from femoral artery of the rats and allowed to stand under ice-cooling for 5 hours. The separated supernatant was centrifuged at 4° C. (10,000 r.p.m.×1 hour). The antisera thus obtained were stored at -80° C. prior to use.
Male SD-strain rats aged 8 weeks, weighing 290 to 330 g, were used for PCA reaction with the homologus reaginic antiserum as prepared above. Each 0.1 ml of 64 fold diluted antiserum were injected intradermally at separate sites on the back of rats clipped free of hair, and 48 hours later, 1 ml of aqueous solution containing each 5 mg of the egg albumin and Evans blue was injected intravenously to evoke PCA reaction. Test compound was given to the animals orally 60 minutes or intravenously 5 minutes before the challenge with antigen. Control group received vehicle. Each dose group consisted of 5 animals. One hour after the challenge with antigen, the animals were sacrificed and then skinned. Dye spots caused with antiserum were investigated for their size on the reversed side of the skin, respectively. The results were expressed by percent inhibition values calculated from averaged values of the longest and shortest diameters for each spot in comparison with those in control group.

On to “4-oxo-10-cyclohexanecarboxamido-4H-pyrimido[1,2-C]quinazoline-3-carboxylicacid [Example 52]”, for which the “Inhibitory effect (%), Intravenous administration (10 mg/kg)” value (“Inhibitory effect (%) … (10 mg/kg)” below) was determined as 100%.
Consider `CCOC(=O)C(=CNc1ncnc2ccc(C)cc12)C(=O)OCC` [compound 2], for which the inhibition in vivo at 10 mg/kg stood at 100%.
For the molecule “diethyl [{6-methanesulfonamido-4-quinazolinylamino}methylene]propanedioate [Example 31]”, the “Inhibitory effect (%) … (10 mg/kg)” value came out at 64.9%.
For the molecule `CCOC(=O)C(=CNc1ncnc2ccc(N(C)C)cc12)C(=O)OCC` [compound 11], the inhibition in vivo at 10 mg/kg turned out to be 100%.
As to “diethyl [{6-(3,3-dimethylbutyramido)-4-quinazolinylamino}methylene]propanedioate [Example 29]”, the “Inhibitory effect (%) … (10 mg/kg)” value is recorded as 100%.
Take `CCOC(=O)C(=CNc1ncnc2ccccc12)C(=O)OCC` [Test compound No. 1, diethyl[(4-quinazolinylamino)methylene]propanedioate]: the inhibition in vivo at 10 mg/kg came to 100%.
Consider “methyl 4-oxo-10-(2-ethylbutyramido)-4H-pyrimido[1,2-C]quinazoline-3-carboxylate [Example 46]”, for which the “Inhibitory effect (%) … (10 mg/kg)” value came out at 76.3%.
As for “ethyl 4-oxo-4H-pyrimido[1,2-c]quinazoline-3-carboxylate [Test compound No. 23]”, the “Inhibitory effect (%) … (10 mg/kg)” value came to 75.4%.
In the case of “4-oxo-10-(2-methylpropionamido)-4H-pyrimido[1,2-C]quinazoline-3-carboxylicacid [Test compound No. 63]”, the “Inhibitory effect (%) … (10 mg/kg)” value stood at 100%.
Turning to `CCCc1ccc2ncnc(NC=C(C(=O)OCC)C(=O)OCC)c2c1` [compound 4], the inhibition in vivo at 10 mg/kg was determined as 85.9%.
On to “dimethyl [{6-pivalamido-4-quinazolinylamino}methylene]propanedioate [Example 30]”, for which the “Inhibitory effect (%) … (10 mg/kg)” value amounted to 100%.
Turning to `CCOC(=O)C(=CNc1ncnc2ccc(CC)cc12)C(=O)OCC` [Test compound No. 3, diethyl [(6-ethyl-4-quinazolinylamino)methylene]propanedioate], the inhibition in vivo at 10 mg/kg is 100%.
“4H-pyrimido[1,2-c]quinazoline-4-one [Example 26]”: the “Inhibitory effect (%) … (10 mg/kg)” value was found to be 100%.
As to “4-oxo-4H-pyrimido[1,2-c]quinazoline-3-carboxylic acid [Example 27]”, the “Inhibitory effect (%) … (10 mg/kg)” value stood at 100%.
With `CCOC(=O)C(=CNc1ncnc2ccc(NC(=O)C(C)C)cc12)C(=O)OCC` [Example 16, diethyl [(6-isobutyramido-4-quinazolinylamino)methylene]propanedioate], the inhibition in vivo at 10 mg/kg was determined as 100% and the “Inhibitory effect (%), Oral administration (100 mg/kg)” value (“Inhibitory effect (%) … (100 mg/kg)” for short) was 51.6%.
Turning to “methyl 4-oxo-10-(3,3-dimethylbutyramido)-4H-pyrimido[1,2-c]quinazoline-3-carboxylate [Example 38]”, the “Inhibitory effect (%) … (10 mg/kg)” value was determined as 100%.
For the molecule “4-oxo-10-(3-cyclopentylpropionamido)-4H-pyrimido[1,2-C]quinazoline-3-carboxylic acid [Example 53]”, the “Inhibitory effect (%) … (10 mg/kg)” value stood at 85.0%.
Regarding “4-oxo-10-(2-ethylbutyramido)-4H-pyrimido[1,2-C]quinazoline-3-carboxylic acid [Test compound No. 64]”, the “Inhibitory effect (%) … (10 mg/kg)” value was determined as 39.8%.
In the case of “4-oxo-10-pivalamido-4H-pyrimido[1,2-c]quinazoline-3-carboxyic acid [Test compound No. 60]”, the “Inhibitory effect (%) … (100 mg/kg)” value is recorded as 75.8%.
`CCOC(=O)c1cnc2c3ccccc3ncn2c1=O` [compound 23]: the inhibition in vivo at 10 mg/kg is 100%.
As for `CCOC(=O)C(=CNc1ncnc2ccc(NC(=O)CC)cc12)C(=O)OCC` [compound 14], the “Inhibitory effect (%) … (100 mg/kg)” value is 77.4%.
For `CCOC(=O)C(=CNc1nc(=O)n(C)c2ccccc12)C(=O)OCC` [compound 22], the inhibition in vivo at 10 mg/kg stood at 100%.
As for “Diethyl [(6-acetamido-4-quinazolinylamino)methylene]propanedioate [Test compound No. 13]”, the “Inhibitory effect (%) … (10 mg/kg)” value amounted to 100%.
On to “tetraethyl 2,2-[2,4-quinazolinediylbis(iminomethylidyne)]bispropanedioate [Example 8]”, for which the “Inhibitory effect (%) … (10 mg/kg)” value was 52.7%.
As to `CCOC(=O)C(=CNc1ncnc2ccc(N3CCN(C)CC3)cc12)C(=O)OCC` [compound 12], the inhibition in vivo at 10 mg/kg came out at 51.2%.
As to `CCOC(=O)C(=CNc1ncnc2ccc(NC(C)=O)cc12)C(=O)OCC` [compound 13], the inhibition in vivo at 10 mg/kg was 100%.
Still for that read-out and setting: under `CCOC(=O)c1cnc2c3cc(N4CCN(C)CC4)ccc3ncn2c1=O` [compound 34] stands 100%.
As to “dimethyl [[6-cyclohexanecarboxamido-4-quinazolinylamino]methylene]propanedioate [Example 44]”, the “Inhibitory effect (%) … (10 mg/kg)” value was determined as 0% and the “Inhibitory effect (%) … (100 mg/kg)” value was 49.1%.
As to `CCOC(=O)C(=O)Nc1ccc2ncnc(NC=C(C(=O)OCC)C(=O)OCC)c2c1` [compound 17], the inhibition in vivo at 10 mg/kg turned out to be 100%.
With “diethyl [[6-(2-ethylbutyramido)-4-quinazolinylamino]methylene]propanedioate [Example 54]”, the “Inhibitory effect (%) … (10 mg/kg)” value was 48.4%.
For “methyl 4-oxo-10-pivalamido-4H-pyrimido[1,2-c]quinazoline-3-carboxylate [Test compound No. 59]”, the “Inhibitory effect (%) … (100 mg/kg)” value is on record as 72.7%.
As to “methyl 4-oxo-10-cyclohexanecarboxamido-4H-pyrimido[1,2-C]quinazoline-3-carboxylate [Example 48]”, the “Inhibitory effect (%) … (10 mg/kg)” value was determined as 100% and the “Inhibitory effect (%) … (100 mg/kg)” value worked out at 57.5%.
Take “diethyl [(6-nitro-4-quinazolinylamino)methylene]propanedioate [Test compound No. 8]”: the “Inhibitory effect (%) … (10 mg/kg)” value turned out to be 24.4%.
Still for that read-out and setting: under “methyl 4-oxo-10-(2-methylpropionamido)-4H-pyrimido[1,2-C]quinazoline-3-carboxylate [Example 47]” stands 100%.
Turning to “ethyl 4-oxo-10-(2-ethylbutyramido)-4H-pyrimido[1,2-C]quinazoline-3-carboxylate [Example 55]”, the “Inhibitory effect (%) … (10 mg/kg)” value is reported as 91.0%.
As for “ethyl 4-oxo-10-(3,3-dimethylbutyramido)-4H-pyrimido[1,2-c]quinazoline-3-carboxylate [Test compound No. 61]”, the “Inhibitory effect (%) … (100 mg/kg)” value was 74.2%.
For the molecule “diethyl 4,9-dioxo-4H,9H-pyrimido[1,2-c]pyrimido[1,2-a]quinazoline-3,8-dicarboxylate [Example 25]”, the “Inhibitory effect (%) … (10 mg/kg)” value came to 100%.
Turning to “ethyl 4-oxo-10-(3-cyclopentylpropionamido)-4H-pyrimido[1,2-C]quinazoline-3-carboxylate [Example 56]”, the “Inhibitory effect (%) … (10 mg/kg)” value is on record as 100% and the “Inhibitory effect (%) … (100 mg/kg)” value came out at 24.2%.
Take `CCOC(=O)C(=CNc1nc(OC)nc2ccccc12)C(=O)OCC` [compound 20]: the inhibition in vivo at 10 mg/kg worked out at 37.6%.
For the molecule “diethyl [(6-amino-4-quinazolinylamino)methylene]propanedioate [Example 15]”, the “Inhibitory effect (%) … (100 mg/kg)” value is on record as 58.1%.
Regarding “dimethyl [[6-(2,3-dimethylpentanamido)-4-quinazolinylamino]methylene]propanedioate [Example 57]”, the “Inhibitory effect (%) … (10 mg/kg)” value is reported as 100% and the “Inhibitory effect (%) … (100 mg/kg)” value came to 100%.

The record behind these values is patent US4429126A, “Sodium salt of 4-oxo-10-(2,3-dimethylpentanamido)-4H-pyrimido[1,2-c]quinozoline-3-carbo xylic acid” (Fujisawa Pharmaceutical Co., Ltd., priority 1982, dated 1984).
